From US20140079741A1, “INHIBITION AND TREATMENT OF BIOFILMS” (priority 2011, published 2014)
Entries after “also recorded” stand apart in the source; their conditions may differ.

Legend:
[1] = test system: C. albicans WT biofilms; experiment: Biofilm survival by CFU determination (plating on YPD); type: cell-based, Candida albicans; settings: WT biofilms grown with 500 μg/ml diclofenac, AmB 2.5-10 μg/ml, 24 h
Protocol: Using the same setup as in Example 2, WT biofilms grown in the presence or absence of diclofenac (500 μg/ml) or Δefg1 biofilms were incubated with various concentrations of Amphotericin B (AmB) (2.5-10 μg/ml) for 24 h, both in the presence or absence of diclofenac. After washing, the remaining living cells within the biofilm were determined by plating on YPD and determination of colony forming units (CFUs).

[2] = test system: C. albicans WT CAF2-1 biofilms; experiment: Biofilm cell viability by CellTiter-Blue staining; type: cell-based, Candida albicans; settings: 24 h
Protocol: To this end, cultures of the WT CAF2-1 were grown overnight (2*10^8 cells/ml) in YPD (1% yeast extract, 2% peptone, 2% glucose) and washed 3 times in PBS (pH 7.4). After dilution (OD600=0.5) in SC (1% CSM, complete amino acid supplement mixture, 1% YNB, yeast nitrogen base; 2% glucose), the cultures were resuspended (100 μl/well) in a 96well microtiter plate. After 1 h of adhesion, the adherent WT cells were incubated with or without 2 mM (about 500 μg/ml) diclofenac (in DMSO, resulting in final concentration of 2.4% DMSO) and allowed biofilm growth for 16 h in SC. Next, the resulting biofilms were washed with PBS and treated with various concentrations of miconazole (0-500 μM) for 24 h in the absence or presence of diclofenac. After washing, the remaining living cells using the CellTiter-Blue quantification method were determined.
(§1) Using the same setup as above, WT biofilms grown in the presence or absence of diclofenac (0.5-3 mM or 148-888 μg/mL) were incubated with various concentrations of Caspofungin (0-150 μM) for 24 h, both in the presence or absence of diclofenac. After washing, the remaining living cells within the biofilm was determined by CellTiter-Blue quantification. The MIC50 of caspofungin, diclofenac and the combination of both drugs against pretreated or mature C. albicans biofilms was quantified by XTT reduction assay (Ramage et al.).

[3] = test system: planktonic cultures of C. albicans CAF2-1; experiment: MIC50 against planktonic cultures (NCCLS M27-A3); type: cell-based, Candida albicans; settings: Candida albicans, planktonic
Protocol: (§2) Similar results were obtained by determination of the MIC50 values. The susceptibility testing and determination of minimal inhibitory concentrations (MIC) of diclofenac and caspofungin, and combinations thereof that inhibit fungal growth by 50% (MIC50) were performed according the NCCLS M27-A3 protocol (2008).

[4] = test system: biofilms of C. albicans CAF2-1; experiment: MIC50 against biofilms (XTT reduction assay); type: cell-based, Candida albicans; settings: for MIC50: Candida albicans
Protocol: as §1, §2

[5] = test system: C. albicans biofilms grown on catheters; experiment: In vitro biofilm drug susceptibility on polyurethane catheter pieces (CFU); type: cell-based, Candida albicans
Protocol: In an alternative setup, in vitro biofilm drug susceptibility assays were performed using serum-coated 1 cm polyurethane catheter pieces (Arrow International Reading) as described previously. Biofilms were grown in RPMI 1640 (pH 7.0) and Candida cells were allowed to adhere to the substrate for 90 min.
Diclofenac (2 mM) was administered during the period of adhesion of C. albicans cells on the catheters and throughout the period of biofilm formation. Catheter fragments containing diclofenac-pretreated or untreated mature biofilms were washed and subsequently incubated with caspofungin (125 μM) or water in the presence or absence of diclofenac (2 mM) for 24 h, respectively. Biofilms were washed and quantified by determination of colony forming units. Untreated biofilms were considered as controls. Statistical analysis was performed using unpaired t-test; differences were considered significant if p<0.05. Data are the mean and SEM of five independent experiments using at least two catheters per test group.
Similar results were obtained when assessing the antibiofilm effect of caspofungin against mature biofilms, which were formed on diclofenac-soaked catheter fragments versus those formed on unsoaked catheter fragments.

[6] = test system: C. albicans CAF2 biofilms on implanted catheter fragments; experiment: Rat subcutaneous catheter infection model (in vivo biofilm susceptibility); set-up: species or system Candida albicans
Protocol: A rat subcutaneous catheter infection model was used for in vivo biofilm susceptibility studies, in which 6 rats were treated with sterile saline (control, 40 catheters), 6 rats with diclofenac (48 catheters), 5 rats with caspofungin (40 catheters) and 6 rats with a combination of diclofenac and caspofungin (45 catheters).
Diclofenac and caspofungin solutions for intravenous injection were prepared in sterile physiological solution. The administration of diclofenac (3 mg/kg) started immediately after the catheter implant and continued daily up to 9 days. The treatment with caspofungin (3 mg/kg) was initiated after 48 h of in vivo biofilm development and maintained by daily injections for 7 days. Sterile saline was administered to the control group. Further analysis and quantification of the number of cells per individual biofilm was performed as previously described. Statistical analysis was performed using unpaired t-test; differences were considered significant if p<0.05. Data are the means and SEM of 2 independent experiments. Six independent catheters retrieved from each test group were used for scanning electron microscopy (SEM) analyses. Prior to the SEM analysis, each catheter fragment was cut longitudinally through the lumen and subsequently prepared for microscopy as previously described.

[7] = test system: C. albicans biofilm cells; settings: caspofungin doses 0.05 μM-0.5 μM, background statement; cited from earlier work
[8] = test system: C. albicans biofilms of wild type CAF2; experiment: Biofilm activity assay, crystal violet quantification (BEC50); type: cell-based, Candida albicans
Protocol: (§3) Biofilm activity assay. The activity of miconazole and fluconazole against 16 h-old C. albicans biofilms (10^7 cells/well) was assessed using the crystal violet quantification method. The biofilm-eradicating capacity of a compound was determined as the minimal concentration resulting in 50% eradication of the biofilm (BEC50).
(§4) Miconazole sensitivity was analyzed of biofilms of C. albicans homozygous null mutants affected in genes involved in the cyclic AMP signaling pathway, namely Δcdc35, Δras1, Δpde1, Δpde2 and Δefg1. To this end, the inventors incubated 16 h-old C. albicans biofilms with various concentrations of miconazole for 24 h and determined the remaining biomass using the crystal violet quantification method.
To this end, cultures of the WT CAF2-1 were grown overnight (2×10^8 cells/ml) in YPD (1% yeast extract, 2% peptone, 2% glucose) and washed 3 times in PBS (pH 7.4). After dilution (OD600=0.5) in SC (1% CSM, complete amino acid supplement mixture, 1% YNB, yeast nitrogen base; 2% glucose), the cultures were resuspended (100 μl/well) in a 96well microtiter plate. After 1 h of adhesion, the adherent WT cells were incubated with or without 500 μg/ml diclofenac and allowed biofilm formation for 16 h. Next, the resulting biofilms were washed with PBS and treated with various concentrations of miconazole for 24 h in the absence or presence of diclofenac. After washing, the remaining biomass was determined using the crystal violet quantification method.
The biofilm-eradicating capacity of a compound was determined as the minimal concentration resulting in 50% eradication of the biofilm (BEC50).

[9] = test system: C. albicans reintegrant Δefg1(EFG1) biofilms; experiment: as above; type: cell-based, Candida albicans; settings: for sensitivity of biofilms to miconazole: Δefg1(EFG1)
Protocol: as §3, §4

[10] = test system: C. albicans Δefg1 biofilms; experiment: as above; type: cell-based, Candida albicans
Protocol: as §3, §4

[11] = test system: C. albicans biofilm cells; experiment: Intracellular accumulation of miconazole in biofilm cells (quantitative HPLC); type: cell-based, Candida albicans
Protocol: Quantitative analysis of intracellular accumulation of miconazole in C. albicans biofilm cells. […] After incubation, treated biofilms were resuspended and pooled per 5 wells. After centrifugation, samples were taken for cell counting using a Thoma counting chamber, whereafter the pellet was resuspended in 300 μl 70% acetonitrile/30% PBS. Miconazole concentration in the cell lysates was determined using HPLC and normalized to the number of cells in the pellet. Statistical analysis was performed using unpaired student t test; differences were considered significant if p<0.05.
The intracellular accumulation of miconazole in Δefg1 and WT biofilms upon miconazole treatment was determined to investigate whether the increased miconazole sensitivity of Δefg1 biofilms is due to an increased uptake or decreased efflux of miconazole. To this end, 16 h-old Δefg1 and WT C. albicans biofilms were treated with different concentrations of miconazole for 4 h and the concentration of miconazole in the biofilm cells via HPLC analysis was determined.
The intracellular accumulation of miconazole in WT biofilms grown in the prescence or absence of 500 μg/ml diclofenac upon miconazole treatment was determined to investigate whether the increased miconazole sensitivity of diclofenac-treated WT biofilms is due to an increased uptake or decreased efflux of miconazole. […]

[12] = rats, caspofungin 3 mg/kg 7 days with 48 h diclofenac-pretreatment and further diclofenac 3 mg/kg

C[C@@H]1[C@H](O)[C@@H](C)/C=C/C=C/C=C/C=C/C=C/C=C/C=C/[C@H](O[C@@H]2O[C@H](C)[C@@H](O)[C@H](N)[C@@H]2O)C[C@@H]2O[C@](O)(C[C@@H](O)C[C@@H](O)[C@H](O)CC[C@@H](O)C[C@@H](O)CC(=O)O[C@H]1C)C[C@H](O)[C@H]2C(=O)O [Amphotericin B]
drop of % survival compared to diclofenac-untreated biofilms [1]: about 5 fold

CC[C@H](C)C[C@H](C)CCCCCCCCC(=O)N[C@H]1C[C@@H](O)[C@@H](NCCN)NC(=O)[C@@H]2[C@@H](O)CCN2C(=O)[C@H]([C@H](O)CCN)NC(=O)[C@H]([C@H](O)[C@@H](O)c2ccc(O)cc2)NC(=O)[C@@H]2C[C@@H](O)CN2C(=O)[C@H]([C@@H](C)O)NC1=O [caspofungin]
drop of % survival compared to diclofenac-untreated biofilms ([2]; WT biofilms grown with 0.5-3 mM diclofenac, various caspofungin concentrations): about 5 fold | MIC50 ([3]; RPMI 1640, caspofungin alone): < 0.05 µM | MIC50 ([3]; combination of caspofungin and 2 mM diclofenac): 0.23 µM | MIC50 ([4]; biofilms, caspofungin alone): 6 µM | MIC50 ([4]; biofilms, caspofungin in combination with 2 mM diclofenac-pretreatment): < 0.75 µM | MIC50 ([4]; coincubation of mature biofilms with caspofungin and 2 mM diclofenac): 1.5 µM | MIC50 against biofilms relative to MIC50 against planktonic cultures ([4]; caspofungin alone): at least 100 times | FICI ([4]; diclofenac coincubation/caspofungin combination): 0.25 | FICI ([4]; diclofenac pretreatment/caspofungin combination): 0.125 | reduction of the number of biofilm cells compared to control treatment ([5]; 125 μM caspofungin alone, 24 h, untreated/unsoaked catheters): did not result in a statistically significant reduction; also recorded: did not display significant activity | reduction of the number of in vitro biofilm cells compared to untreated biofilms ([5]; 2 mM diclofenac during biofilm growth, then 125 μM caspofungin 24 h): at least 12 fold | reduction of the number of biofilm cells compared to control treatment ([5]; biofilms grown on diclofenac-soaked catheters, 125 μM caspofungin): at least 17 fold | sterile catheter fragments retrieved ([6]; rats treated with both caspofungin and diclofenac): 29% | number of sterile catheters retrieved ([6]; rats treated with both caspofungin and diclofenac (45 catheters)): thirteen | sterile catheter fragments retrieved ([6]; rats treated with caspofungin alone): 7.5% | number of sterile catheters retrieved ([6]; rats treated with caspofungin alone (40 catheters)): three | reduction in biofilm cell numbers compared to control treatment [6, 12]: more than 15 fold | reduction in cell numbers compared to caspofungin treatment alone [6, 12]: more than 5 fold | reduction in the number of surviving biofilm cells compared to control treatment ([6]; rats, caspofungin alone 3 mg/kg daily injections for 7 days): more than 10 fold | biofilm structure by scanning electron microscopy ([6]; rats, caspofungin without diclofenac-pretreatment): biofilm cells formed in minor clusters | biofilm structure by scanning electron microscopy ([6]; rats, diclofenac and caspofungin together): only scattered yeast cells and hyphae were observed | metabolic activity of C. albicans biofilm cells [7]: do not decrease the metabolic activity

Clc1ccc(COC(Cn2ccnc2)c2ccc(Cl)cc2Cl)c(Cl)c1 (stereo not shown) [miconazole]
BEC50 (minimal concentration resulting in 50% eradication of the biofilm) ([8]; WT CAF2, 16 h-old biofilms, 24 h treatment, no diclofenac): > 250 µg/mL | BEC50 ([8]; WT biofilms grown and treated in presence of 500 μg/ml diclofenac): 46 µg/mL | sensitivity of biofilms to miconazole ([8]; WT, high miconazole dose 250 μg/ml): resistant | BEC50 ([9]; reintegrant Δefg1(EFG1), 16 h-old biofilms, 24 h treatment): 100 µg/mL | sensitivity of biofilms to miconazole ([9]; high miconazole dose 250 μg/ml): as sensitive to miconazole as Δefg1 biofilms | sensitivity of biofilms to miconazole ([9]; moderate miconazole doses 62-125 μg/ml): intermediate miconazole sensitivity phenotype | BEC50 ([10]; Δefg1, 16 h-old biofilms, 24 h treatment): 25 µg/mL | sensitivity of biofilms to miconazole ([10]; Δefg1, low miconazole dose 31 μg/ml): sensitive | intracellular miconazole levels in diclofenac-treated compared to untreated WT biofilm cells ([11]; 62-250 μg/ml miconazole and 500 μg/ml diclofenac): significantly increased | intracellular miconazole levels in Δefg1 biofilm cells compared to WT biofilm cells ([11]; 62-250 μg/ml miconazole, 4 h): significantly increased | sensitivity to miconazole compared to untreated WT biofilms ([2]; biofilms treated with 2 mM diclofenac, miconazole 0-500 μM): increased sensitivity
